Data from patent US12448425B2, “Therapeutic peptides” (Board of Regents, The University of Texas System, priority 2019, dated 2025).
One block for each compound: values may come before it. Square brackets hold non-standard residues; d marks the D form. Ends that are not written are not given here. Peptide text beside a SMILES is read from it.

How the values were obtained:
[1] = tested on: A2780cp20 cells; assay: Internalization of Alexa647-labeled peptides (confocal microscopy); assay type: cell-based, human
Experimental: FIGS. 2A-C: BIDEN-AP acts as an EphB4 agonist. (FIG. 2A) BIDEN-AP induced phosphorylation of EphB4 and the associated […] (Crk1). After 16 h serum starvation, A2780cp20 cells were incubated with EFNB2-Fc (20 nM), TNYL-RAW (SEQ ID NO: 12) (50 μM), or BIDEN-AP (50 μM) for 30 min or 2 h. The uncropped blots were available at Supplemental FIG. 11. (FIG. 2B) BIDEN-AP inhibited A2780cp20 cell invasion compared to untreated control (CTL). A modified Boyden transwell chamber coated with human defined matrigel was used. Experiments were performed in triplicate. Data are presented as mean±SD. ***p<0.001. (FIG. 2C) Alexa647-BIDEN-AP was internalized via receptor-mediated endocytosis. A2780cp20 cells were incubated at 37° C. with Alexa647-BIDEN-AP (0.05 μM), Alexa647-TNYL-RAW (SEQ ID NO: 12) (0.05 μM), or Alexa647-BIDEN-AP (0.05 μM) plus unlabeled TNYL-RAW (SEQ ID NO: 12) (5 μM, blocking). Alexa647-BIDEN-AP but not Alexa647-TNYL-RAW (SEQ ID NO: 12) was internalized into the A2780cp20 cells.
A2780cp20 cells were incubated at 4° C. with Alexa647-BIDEN-AP (0.05 μM).
Immunofluorescence imaging. A2780cp20 ovarian cancer cells (5×10^5 cells/well) were plated in 4-well chamber slides and treated with Alexa647-labeled BIDEN-AP (50 μM) for 1 h or 2 h. Cells were washed three times with 1×PBS and fixed in freshly prepared fixative containing 3.7% formaldehyde, 0.05% glutaraldehyde, and 0.4% Triton-X-100 in PHEMO buffer (0.068 M PIPES, 0.025 M HEPES, 0.015 M EGTA, 0.003 M MgCl2, and 10% ov/v dimethylsufoxide [DMSO]) for 10 min at room temperature. LysoTracker Green (Cat. L7526; Invitrogen, Carlsbad, CA) was used as a marker of lysosome. The nucleus was stained with Hoechst 33342 (300 nM) at room temperature for 10 min before mounting in Gel Mount mounting medium (Vector Laboratories, Burlingame, CA). Fixed and immunofluorescence-stained cells were imaged using a Zeiss LSM510 Meta laser scanning confocal system (Zeiss, Dublin, CA) configured to a Zeiss Axioplan 2 upright microscope with a CFI Plan Apo Lambda 20× objective lens. Images were obtained from three independent biological replicates.

[2] = target: T1, EphB4 (Homo sapiens, UniProt P54760); assay: SPR binding of peptides to immobilized EphB4; conditions: EphB4-coated sensor chips, 25° C.
T1 construct: purchased R&D Systems
T1 sequence (P54760 16-987): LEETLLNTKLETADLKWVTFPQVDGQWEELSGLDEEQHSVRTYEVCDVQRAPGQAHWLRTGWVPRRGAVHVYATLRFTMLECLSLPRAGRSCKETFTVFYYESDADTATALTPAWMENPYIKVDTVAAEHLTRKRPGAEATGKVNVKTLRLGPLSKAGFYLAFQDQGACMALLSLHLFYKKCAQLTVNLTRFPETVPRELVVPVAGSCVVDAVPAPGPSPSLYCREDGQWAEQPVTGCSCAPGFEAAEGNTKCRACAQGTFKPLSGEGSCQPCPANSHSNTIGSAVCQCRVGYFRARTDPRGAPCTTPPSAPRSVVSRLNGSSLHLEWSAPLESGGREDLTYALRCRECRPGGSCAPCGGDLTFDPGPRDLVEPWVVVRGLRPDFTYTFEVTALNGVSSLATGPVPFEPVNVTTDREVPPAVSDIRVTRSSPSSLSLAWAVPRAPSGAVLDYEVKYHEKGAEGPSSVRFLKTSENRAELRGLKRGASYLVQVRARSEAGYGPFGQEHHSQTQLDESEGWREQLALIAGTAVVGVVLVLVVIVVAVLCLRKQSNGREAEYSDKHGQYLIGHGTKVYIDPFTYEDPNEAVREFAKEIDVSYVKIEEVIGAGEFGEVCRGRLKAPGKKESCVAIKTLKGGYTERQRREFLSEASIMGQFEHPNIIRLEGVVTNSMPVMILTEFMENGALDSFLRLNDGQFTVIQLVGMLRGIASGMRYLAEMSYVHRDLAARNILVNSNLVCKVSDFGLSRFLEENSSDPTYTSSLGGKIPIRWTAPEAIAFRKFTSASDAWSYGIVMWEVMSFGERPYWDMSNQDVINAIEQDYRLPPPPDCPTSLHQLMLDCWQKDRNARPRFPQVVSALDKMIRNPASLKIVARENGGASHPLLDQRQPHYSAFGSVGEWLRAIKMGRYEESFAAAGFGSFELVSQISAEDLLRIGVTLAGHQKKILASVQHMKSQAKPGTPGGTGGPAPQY
Experimental: Surface plasmon resonance (SPR) binding and competition assays. A stock solution of EphB4 in PBS (100 μg/mL) was diluted to 25 μg/mL with 10 mM sodium acetate buffer (pH 4.5) and immobilized to CM5 sensor chips using the amine coupling reaction according to manufacturer-provided procedures (BIACore). Briefly, the surfaces of the chips in flow cells (FC)-1 and FC-2 were activated by exposing chips to a mixture of 200 mM N-ethyl-N′-dimethylaminopropyl carbodiimide and 50 mM N-hydroxysuccinimide for 7 min. FC-1 was used as a reference surface and was directly deactivated by injecting 1 M ethanolamine at pH 8.5 for 7 min. FC-2 was injected with 25 μg/mL human or murine EphB4 followed by injection of 1 M ethanolamine to block the remaining activated ester groups on the surface. The chips were allowed to stabilize for at least 2 h in HBSEP running buffer before injection of test analytes.

[3] = tested on: 4T1 cells; assay: 4T1 i.v. lung metastasis model; parameters: species or system mouse; conditions: throughout these in vivo studies
Excerpt: FIGS. 25A-B: Anti-metastatic activity of BIDEN-AP. (FIG. 25A) Representative photographs of lungs from different treatment groups. The normal lung tissue was stained by blue ink. (FIG. 25B) Counts of surface metastatic nodules in the lung by visual inspection. Data are expressed as mean±SD. **p<0.01 (n=10).
BIDEN-AP was given at the same dose and the same schedule as in FIG. 24A. […] Thus, BIDEN-AP is highly anti-metastatic.

[4] = tested on: EphB4 on the surface of A2780cp20 cells; assay type: cell-based, human; conditions: 1 h
Experimental: Cell-based binding assay. A2780cp20 ovarian cancer cells (1×10^6 cells/mL) were incubated with EFNB2-Fc (20 nM) and BIDEN-AP at concentrations ranging from 0 to 100 μM at 25° C. for 1 h. After washings, EFNB2-Fc bound to the cells were probed with PE-labeled anti-Fc antibody and analyzed by flow cytometry. Binding of BIDEN-AP to A2780cp20 cells was determined by its ability to displace EFNB2-Fc's binding to the tumor cells, measured by decreased PE fluorescence signal. Cells were analyzed in a Cellquest fluorocytometer (BD Bioscience, San Jose, CA). The experiments were run in duplicate.

[5] = tested on: MDA-HGSC-1 PDX tumor; conditions: mouse, in vivo
Excerpt: PDX model of high grade serous ovarian carcinoma (HGSC). Under Institutional Review Board (IRB protocol PA15-0441) and IACUC approval at University of Texas, MD Anderson Cancer Center, patients with high-serous ovarian carcinoma that were being treated by at the MD Anderson Cancer Center were consented for this study. Subcutaneous HGSC-PDX model was established in 4-6 week old female Balb C athymic nude mice (Harlan Laboratories, Indianapolis, Ind.) by implanting one PDX 3×3×3 mm tumor cube (MDA-HGSOC-1 high-grade serous ovarian cancer; generation 9) at the dorsal portion of each mouse. Tumor size was monitored by caliber, and tumor volume was calculated using the formula V(cm^3)=(length×width^2)/2. Mice were randomly assigned to the PBS vehicle control or BIDEN-AP treatment group, 6 mice per group, once tumor size reached ˜100 mm^3 (21 days after implantation). PBS or BIDEN-AP was injected intraperitoneally at […] ([…]), once every other day for a total of 14 doses. At the end of the study (day 49), all mice were euthanized, and tumors were collected, weighted, and snap-frozen in optimal cutting temperature compound with liquid nitrogen, and cryosectioned into 5-μm sections for IHC staining of CD31 and Ki67 markers. […] Cell nuclei were counterstained with DAPI.

[6] = Zhang et al., 2011b; cited from earlier work

Compound: Alexa647-BIDEN-AP: BIDEN-AP coupled with Alexa647-NHS (TN[dY]LFSPNGPIARAW; also: Alexa647 label, site not given here)
- cellular internalization at 37° C. [1]: readily internalized
- internalization in presence of excess unlabeled TNYL-RAW ([1]; 37° C., blocking): blocked

- Kd [2]: 21 nM
Compound: YSA-TNYL-RAW-dimer [B4-003]

Compound: Alexa647-TNYL-RAW: TNYL-RAW coupled with Alexa647-NHS (TNYLRAW; also: Alexa647 label, site not given here) [reference compound]
- cellular internalization at 37° C. [1]: excluded

- Kd [2]: > 1000 nM
Compound: CC[C@H](C)[C@H](NC(=O)[C@@H]1CCCN1C(=O)CNC(=O)[C@H](CC(N)=O)NC(=O)[C@@H]1CCCN1C(=O)[C@@H](CO)NC(=O)[C@H](Cc1ccccc1)NC(=O)[C@H](CC(C)C)NC(=O)[C@H](Cc1ccc(O)cc1)NC(=O)[C@H](CC(N)=O)NC(=O)[C@@H](N)[C@@H](C)O)C(=O)N[C@@H](C)C(=O)N[C@@H](CCCNC(=N)N)C(=O)N[C@@H](C)C(=O)N[C@@H](Cc1c[nH]c2ccccc12)C(N)=O [B4-006] (H-TNYLF[dS]PNGPIARAW-NH2)

Compound: CC[C@H](C)[C@H](NC(=O)[C@@H]1CCCN1C(=O)CNC(=O)[C@H](CC(N)=O)NC(=O)[C@@H]1CCCN1C(=O)[C@H](CO)NC(=O)[C@H](Cc1ccccc1)NC(=O)[C@H](CC(C)C)NC(=O)[C@@H](Cc1ccc(O)cc1)NC(=O)[C@H](CC(N)=O)NC(=O)[C@@H](N)[C@@H](C)O)C(=O)N[C@@H](C)C(=O)N[C@@H](CCCNC(=N)N)C(=O)N[C@@H](C)C(=O)N[C@@H](Cc1c[nH]c2ccccc12)C(N)=O [BIDEN-AP] (H-TN[dY]LFSPNGPIARAW-NH2; C-terminus assumed)
- tolerability (treatment-related death, body weight) [3]: no cases of treatment-related death or change in body weight
- IC50 [4]: ~1000 nM
- body weight change vs control group [5]: did not result in body weight change

Compound: TNYLFSPNGPIARAW-NH2 (C-terminus assumed) [TNYL-RAW]
- area-under-the time curve [AUC] [6]: 29.1 % ID h/mL
